Assay [1] has as its system herpes simplex virus, Type 1. In words: Antiviral test against herpes simplex virus, Type 1, growing in rabbit kidney cells (Virus Rating, MIC50). The assay is classed as cell-based. Details: key to Virus Rating (VR) / VR: Ehrlich weighted score; 0.5-0.9 marginal-moderate, ≥1 definite activity. The following applies: for VR: same type of test against herpes simplex virus (Table 1); for Antiviral activity against herpes simplex virus, in words: same type of test as Table 1. How it is done: (§1) Carbocyclic analogs of 5-substituted-2'-deoxyuridines were tested for antiviral activity against viruses that replicate in mammalian cells growing in cell culture. The Virus Rating (VR) is a weighted measurement of antiviral activity determined by the method of Ehrlich et al, Annals of the New York Academy of Science, volume 130, pages 5-16, 1965. In tests carried out by this method, a VR of 0.5-0.9 indicates marginal to moderate antiviral activity and a VR equal to or greater than 1 indicates definite antiviral activity. The higher the value of VR, the greater is the antiviral activity. The MIC50 (minimum inhibitory concentration, 50%) is the concentration of a test compound required for 50% inhibition of virus-induced cytopathogenic effect.
The results of antiviral tests, performed as described in Example 7, of 5-iodo-2'-deoxyuridine (IdUrd), the carbocyclic analog (Example 3) of 5-iodo-2'-deoxyuridine, 9-β-D-arabinofuranosyladenine (Ara-A), the carbocyclic analog (Example 2) of 5-bromo-2'-deoxyuridine, the carbocyclic analog (Example 5) of 5-(methylamino)-2'-deoxyuridine and the carbocyclic analog of thymidine are summarized in Table 3.

The test system of assay [2] is Type 2 herpes simplex virus. In words: Antiviral test against Type 2 herpes simplex virus (Virus Rating). To be noted: for VR: Type 2 herpes simplex virus. The assay is classed as cell-based. How it is done: as §1
For assay [3], the system named is herpes simplex virus. To be noted: F. M. Schabel, Jr., Chemotherapy 13, 321-328, 1968; listed as IdUrd; cited from earlier work.
Assay [4] deals with herpes simplex virus. Description: Activity against intracerebral herpes simplex virus in mice (herpes encephalitis). The assay is classed as in vivo. The following applies: for % of Infected Mice that lived 10 days or longer / % of Infected Mice that lived less than six days / Median Survival Time: treated seven days, 10x LD50 intracerebral; for Activity against herpes encephalitis in mice, in words: intracerebral herpes simplex virus. As for the experimental part:
Mice were inoculated intracerebrally with ten times the LD50 of herpes simplex virus. (The LD50 is the amount of virus that would be lethal to 50% of the inoculated animals.) Some of these virus-infected mice were treated for seven days with the carbocyclic analog (Example 3) of IdUrd, and some of these virus-infected mice were not treated and served as a control group.

In another assay the test system is varicella-zoster virus. Description: Inhibition of varicella-zoster virus replication in human foreskin fibroblasts (virus yield-reduction). The assay is classed as cell-based. The text has this:
(§2) Carbocyclic analogs of 5-substituted-2'-deoxyuridines may inhibit the replication of other DNA viruses. Thus, the carbocyclic analog (Example 3) of 5-iodo-2'-deoxyuridine is active against varicella-zoster virus replicating in human foreskin fibroblasts (Table 2). […] The IdUrd analog (Example 3) was also active against murine leukemia virus, an RNA tumor virus.
Virus titers are expressed in terms of log10 CCID50 (cell
culture infectious dose, 50%) units per ml., and the reduction in virus
yield after drug treatment is expressed as a logarithm.

A further assay concerns murine leukemia virus. In words: Inhibition of murine leukemia virus replication in mouse embryo cells. The assay is classed as cell-based.
Excerpt: as §2

Where [5] appears, read: Table 1, rabbit kidney cells, VR 0.5-0.9 marginal to moderate, >=1 definite antiviral activity.
Setting [6] is: Human alphaherpesvirus 1, Table 3 comparison, read-out: MIC50.
Where [7] appears, read: Human alphaherpesvirus 1, Table 1, 50% inhibition of virus-induced cytopathogenic effect, rabbit kidney cells, read-out: MIC50 (minimum inhibitory concentration, 50%).

In brackets after ≈: the same amount, converted by molar mass. Entries after “also recorded” stand apart in the source; their conditions may differ. Read-outs that look alike come from different tables or passages of the source.

Take `O=c1[nH]c(=O)n([C@@H]2C[C@H](CO)[C@@H](O)C2)cc1F` (relative stereo) [Formula I, X = F, R = R^1 = H, reference compound]: the “Virus Rating (VR)” value in assay [1] (setting [5]) is 0. In addition, in assay [1], the VR is listed as 0 and the “Antiviral activity against herpes simplex virus, in words” value (shortened to “Antiviral activity”) is “not active”.

For the molecule `Nc1cn([C@@H]2C[C@H](CO)[C@@H](O)C2)c(=O)[nH]c1=O` (relative stereo) [reference compound], in assay [1], the VR worked out at 0.1 and the “Antiviral activity” value is given as “devoid of significant activity”.

For `Nc1ncnc2c1ncn2[C@@H]1O[C@H](CO)[C@@H](O)[C@@H]1O` [9-β-D-Arabinofuranosyladenine (Ara-A), 9-β-D-arabinofuranosyladenine, reference compound], the EC50 in assay [1] (Human alphaherpesvirus 1, read-out: MIC50, Table 3 comparison) was 9.8 µg/mL (≈ 36.7 µM). Also, the “Virus Rating (VR) (average)” value in assay [1] (Table 3 comparison, average) is 2.7.

On to `O=c1ccn([C@@H]2C[C@H](CO)[C@@H](O)C2)c(=O)[nH]1` (relative stereo) [Formula I, X = H, R = R^1 = H, (±)-1-[(1α,3β,4α)-3-hydroxy-4-(hydroxymethyl)cyclopentyl]-2,4(1H,3H)-pyrimidinedione, reference compound], for which, in assay [1] (setting [5]), the “Virus Rating (VR)” value stood at 0. In assay [1], the “Antiviral activity” value was “not active”.

In the case of `O=c1[nH]c(=O)n([C@@H]2C[C@H](CO)[C@@H](O)C2)cc1Br` (relative stereo) [Example 2, (±)-5-Bromo-1-[(1α,3β,4α)-3-hydroxy-4-(hydroxymethyl)cyclopentyl]-2,4(1H,3H)-pyrimidinedione], the EC50 in assay [1] (setting [6]) was 0.3 µg/mL (≈ 0.983 µM). The “Virus Rating (VR)” value in assay [1] (setting [5]) stood at 6.2. Further, in assay [1] (Table 3 comparison), the “Virus Rating (VR)” value came to 6.2. For the same molecule, the “Antiviral activity” value in assay [1] is “very high activity; also recorded: high activity”. For the same molecule, in assay [2], the “Activity against Type 2 herpes simplex virus, in words” value is on record as “high activity” and the VR is given as 1.5.

For `Cc1cn([C@@H]2C[C@H](CO)[C@@H](O)C2)c(=O)[nH]c1=O` (relative stereo) [Carbocyclic analog of thymidine], in assay [1] (setting [6]), the EC50 was 0.8 µg/mL (≈ 3.33 µM). Moreover, in assay [1] (setting [5]), the “Virus Rating (VR)” value is reported as 5.4. Besides, in assay [1] (Table 3 comparison), the “Virus Rating (VR)” value was determined as 5.4. In addition, the “Antiviral activity” value in assay [1] is reported as “very high activity”. Further, in assay [2], the “Activity against Type 2 herpes simplex virus, in words” value is “high activity” and the VR is listed as 3.2.

As to `O=c1[nH]c(=O)n([C@H]2C[C@H](O)[C@@H](CO)O2)cc1I` [5-Iodo-2'-deoxyuridine, 5-iodo-2'-deoxyuridine], the EC50 in assay [1] (setting [6]) came to 0.3 µg/mL (≈ 0.847 µM). For the same molecule, the “Activity against herpes encephalitis in mice, in words” value in the assay with herpes simplex virus [3] is “not active; also recorded: does not exhibit this type of antiviral activity”.

As for `O=c1[nH]c(=O)n([C@@H]2C[C@H](CO)[C@@H](O)C2)cc1I` (relative stereo) [Example 3, (±)-1-[(1α,3β,4α)-3-Hydroxy-4-(hydroxymethyl)cyclopentyl]-5-iodo-2,4(1H,3H)-pyrimidinedione], the EC50 in assay [1] (Human alphaherpesvirus 1, read-out: MIC50 (minimum inhibitory concentration, 50%), Table 1, 50% inhibition of virus-induced cytopathogenic effect, rabbit kidney cells) worked out at 0.3 µg/mL (≈ 0.852 µM). For the same molecule, in assay [1] (setting [5]), the “Virus Rating (VR)” value is 7.1. Besides, the “Activity compared with IdUrd, in words” value in assay [1] (Table 3 tests) was “comparable in activity”. Moreover, in assay [1], the “Antiviral activity” value is “very high activity; also recorded: high activity”. Moreover, the figures for the “% of Infected Mice that lived 10 days or longer” value in the assay on herpes simplex virus [4] (300 mg./kg.) and in the assay on herpes simplex virus [4] (400 mg./kg.) were 40% and 50%, respectively. Besides, the “% of Infected Mice that lived less than six days” value with herpes simplex virus [4] (300 mg./kg.) is 10%; in the assay on herpes simplex virus [4] (400 mg./kg.) it was 0%. In addition, the “Median Survival Time” value in the assay with herpes simplex virus [4] (300 mg./kg.) turned out to be 9.2 days; with herpes simplex virus [4] (400 mg./kg.), 8.8 days. Further, the “Activity against herpes encephalitis in mice, in words” value is recorded as “active against herpes encephalitis” with herpes simplex virus [4] and “active” in the assay with herpes simplex virus [4] (listed as carbocyclic analog of 5-iodo-2'-deoxyuridine). Further, the “Virus Yield Log10 CCID50 /ml” value with varicella-zoster virus (32 μM), in the assay on varicella-zoster virus (100 μM) and with varicella-zoster virus (320 μM) was no more than 0.5 Log10 CCID50 /ml throughout. The “Virus-Induced Cytopathogenic Effects at 10 Days Postinfection, %” value is listed as 0% in the assay with varicella-zoster virus (32 μM, human foreskin fibroblasts); 0% in the assay with varicella-zoster virus (100 μM, human foreskin fibroblasts); 0% in the assay on varicella-zoster virus (320 μM, human foreskin fibroblasts). In the assay with varicella-zoster virus (10 days postinfection), the “observable virus-induced cytopathogenic effects at 10 days postinfection, in words” value is on record as “no observable virus-induced cytopathogenic effects”. Further, in the assay with varicella-zoster virus (Human alphaherpesvirus 3, Fibroblast, 32 μM, read-out: Log10 Reduction in Virus Titer), the log reduction at 32 µM is no less than 4. For the same molecule, the log reduction at 100 µM with varicella-zoster virus (Human alphaherpesvirus 3, Fibroblast, 100 μM, read-out: Log10 Reduction in Virus Titer) was no less than 4. Besides, the log reduction at 320 µM in the assay on varicella-zoster virus (Human alphaherpesvirus 3, Fibroblast, 320 μM, read-out: Log10 Reduction in Virus Titer) is no less than 4. In addition, in the assay on varicella-zoster virus (human foreskin fibroblasts), the “Activity against varicella-zoster virus, in words” value is “active”. Besides, in the assay on varicella-zoster virus (virus yield-reduction experiment), the “reduction in the titer of virus progeny” value is given as no less than 4.0 log10. In addition, the “Activity against Type 2 herpes simplex virus, in words” value in assay [2] is recorded as “high activity”. This molecule had a VR in assay [2] of 3.4. Moreover, in the assay on murine leukemia virus, the “Activity against murine leukemia virus, in words” value is reported as “active”. Moreover, the “Replication of murine leukemia virus in mouse embryo cells” value in the assay with murine leukemia virus (drug concentration of 32 μg/ml) is on record as “completely inhibited”.

As for `CC(=O)OC[C@H]1C[C@@H](n2cc(I)c(=O)[nH]c2=O)C[C@@H]1OC(C)=O` (relative stereo) [Example 4, (±)-1-[(1α,3β,4α)-3-Hydroxy-4-(hydroxymethyl)cyclopentyl]-5-iodo-2,4(1H,3H)-pyrimidinedione Diacetate], in assay [1] (setting [7]), the EC50 was found to be 10 µg/mL. Further, in assay [1] (setting [5]), the “Virus Rating (VR)” value worked out at 2.4.

With `CC(=O)OC[C@H]1C[C@@H](n2cc(Br)c(=O)[nH]c2=O)C[C@@H]1OC(C)=O` (relative stereo) [Example 1, (±)-5-Bromo-1-[(1α,3β,4α)-3-hydroxy-4-(hydroxymethyl)cyclopentyl]-2,4(1H,3H)-pyrimidinedione Diacetate], the EC50 in assay [1] (setting [7]) amounted to 92 µg/mL. In addition, in assay [1] (setting [5]), the “Virus Rating (VR)” value came out at 1.3.

As to `CCCCNc1cn([C@@H]2C[C@H](CO)[C@@H](O)C2)c(=O)[nH]c1=O` (relative stereo) [Example 6, (±)-5-(Butylamino)-1-[(1α,3β,4α)-3-hydroxy-4-(hydroxymethyl)cyclopentyl]-2,4(1H,3H)-pyrimidinedione], the EC50 in assay [1] (setting [7]) amounted to 290 µg/mL (≈ 975 µM). The “Virus Rating (VR)” value in assay [1] (setting [5]) amounted to 2.0. For the same molecule, the “Antiviral activity” value in assay [1] is “active”.

Take `CNc1cn([C@@H]2C[C@H](CO)[C@@H](O)C2)c(=O)[nH]c1=O` (relative stereo) [Example 5, (±)-1-[(1α,3β,4α)-3-Hydroxy-4-(hydroxymethyl)cyclopentyl]-5-(methylamino)-2,4(1H,3H)-pyrimidinedione]: the EC50 in assay [1] (setting [7]) came to 15 µg/mL (≈ 58.8 µM); in assay [1] (setting [6]) it was 10 µg/mL (≈ 39.2 µM). For the same molecule, the “Virus Rating (VR)” value in assay [1] (setting [5]) was 3.9; in assay [1] (Table 3 comparison), 4.2. Besides, the “Antiviral activity” value in assay [1] is listed as “very high activity; also recorded: active”. In addition, in assay [2], the “Activity against Type 2 herpes simplex virus, in words” value is reported as “high activity”. The VR in assay [2] came out at 1.2.
